According to ChEMBL document CHEMBL3868606, “Novel 5-nitropyrimidine derivatives bearing endo-azabicyclic alcohols/amines as potent GPR119 agonists” (Bioorg Med Chem, 2017):

Legend:
[1] = biological target: T1, Glucose-dependent insulinotropic receptor (Homo sapiens) (UniProt Q8TDV5); experiment: Agonist activity at human GPR119 expressed in HEK293 cells assessed as stimulation of cAMP level measured after 60 mins by HTRF assay relative to OEA; format: functional, cell-based
T1 sequence (whole entry): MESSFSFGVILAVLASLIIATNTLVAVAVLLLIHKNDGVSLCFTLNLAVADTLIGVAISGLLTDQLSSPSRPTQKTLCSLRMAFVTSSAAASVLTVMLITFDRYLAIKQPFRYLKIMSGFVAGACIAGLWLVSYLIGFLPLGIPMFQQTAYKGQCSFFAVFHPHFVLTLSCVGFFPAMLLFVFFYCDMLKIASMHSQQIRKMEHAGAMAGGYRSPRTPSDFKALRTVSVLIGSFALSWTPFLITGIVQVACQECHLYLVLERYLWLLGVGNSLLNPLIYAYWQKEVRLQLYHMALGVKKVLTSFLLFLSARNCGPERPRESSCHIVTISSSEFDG

[2] = biological target: T2, Glucose-dependent insulinotropic receptor (Homo sapiens, UniProt Q8TDV5); experiment: Agonist activity at human GPR119 expressed in HEK293 cells assessed as stimulation of cAMP level measured after 60 mins by HTRF assay; format: functional, cell-based
T2 sequence (Q8TDV5 whole entry): T1 sequence (whole entry)

Row | Compound | Emax [1] [%] | EC50 [2] [nM]
1 | CS(=O)(=O)c1ccc(Nc2ncnc(OC3C[C@H]4CC[C@H](C3)N4S(=O)(=O)c3ccc(F)cc3)c2[N+](=O)[O-])c(F)c1 (some centres undefined) | 88.8 | 3.5
2 | CC(C)OC(=O)N1[C@@H]2CC[C@@H]1CC(Nc1ncnc(Nc3ccc(S(C)(=O)=O)cc3F)c1[N+](=O)[O-])C2 (relative stereo) | 54.5 | 6.2
3 | CC(C)OC(=O)N1[C@@H]2CC[C@@H]1CC(Oc1ncnc(Nc3ccc(S(C)(=O)=O)cc3F)c1[N+](=O)[O-])C2 (relative stereo) | 103 | 0.6
4 | CC(C)(C)OC(=O)N1[C@@H]2CC[C@@H]1CC(Nc1ncnc(Nc3ccc(C#N)cc3F)c1[N+](=O)[O-])C2 (relative stereo) | 114 | 1.3
5 | CCOC(=O)N1[C@@H]2CC[C@@H]1CC(Oc1ncnc(Nc3ccc(S(C)(=O)=O)cc3F)c1[N+](=O)[O-])C2 (relative stereo) | 116 | 1.4
6 | CS(=O)(=O)c1ccc(Nc2ncnc(NC3C[C@H]4CC[C@H](C3)N4S(=O)(=O)c3ccc(F)cc3)c2[N+](=O)[O-])c(F)c1 (some centres undefined) | 24.8 | > 2000
7 | CC(C)(C)OC(=O)N1[C@@H]2CC[C@@H]1CC(Oc1ncnc(Oc3ccccc3Cl)c1[N+](=O)[O-])C2 (relative stereo) | 89.8 | 44.2
8 | CC(C)(C)OC(=O)N1[C@@H]2CC[C@@H]1CC(Nc1ncnc(Oc3ccccc3Cl)c1[N+](=O)[O-])C2 (relative stereo) | 37.2 | > 2000
9 | CS(=O)(=O)c1ccc(Nc2ncnc(OC3C[C@H]4CC[C@H](C3)N4S(C)(=O)=O)c2[N+](=O)[O-])c(F)c1 (relative stereo) | 117 | 1.6

Results, then the molecule that gave them:

Row | Emax [1] [%] | EC50 [2] [nM] | Compound
10 | 59 | 205 | CC(C)(C)OC(=O)N1[C@@H]2CC[C@@H]1CC(Nc1ncnc(Nc3ccc(C#N)cc3Cl)c1[N+](=O)[O-])C2 (relative stereo)
11 | 99 | 1.5 | CC(C)(C)OC(=O)N1[C@@H]2CC[C@@H]1CC(Nc1ncnc(Nc3ccc(S(C)(=O)=O)cc3F)c1[N+](=O)[O-])C2 (relative stereo)
12 | 21.3 | > 2000 | CS(=O)(=O)c1ccc(Nc2ncnc(OC3C[C@H]4CC[C@H](C3)N4C(=O)OCC3CC3)c2[N+](=O)[O-])c(F)c1 (relative stereo)
13 | 25.1 | > 2000 | CS(=O)(=O)c1ccc(Nc2ncnc(NC3C[C@H]4CC[C@H](C3)N4C(=O)OCC3CC3)c2[N+](=O)[O-])c(F)c1 (relative stereo)
14 | 32.5 | > 2000 | CCOC(=O)N1[C@@H]2CC[C@@H]1CC(Nc1ncnc(Nc3ccc(S(C)(=O)=O)cc3F)c1[N+](=O)[O-])C2 (relative stereo)
15 | 46.2 | > 2000 | CC(C)(C)OC(=O)N1[C@@H]2CC[C@@H]1CC(Nc1ncnc(Nc3ccccc3C#N)c1[N+](=O)[O-])C2 (relative stereo)
16 | 49.5 | > 2000 | CS(=O)(=O)c1ccc(Nc2ncnc(NC3C[C@H]4CC[C@H](C3)N4S(C)(=O)=O)c2[N+](=O)[O-])c(F)c1 (relative stereo)
17 | 116 | 1.5 | CC(C)(C)OC(=O)N1[C@@H]2CC[C@@H]1CC(Oc1ncnc(Nc3ccc(S(C)(=O)=O)cc3F)c1[N+](=O)[O-])C2 (relative stereo)
